Assays:
IDO1 [1] = molecular target: T1, IDO1 (Homo sapiens, UniProt P14902); test: IDO1 enzyme kinetics assay (Lineweaver–Burk, Dixon plots); format: biochemical; details: L-Trp 0–50 µM, flavonoids 0–45 µM, read-out: κi
Description: The kinetics assay was performed by adding purified protein to the reaction mixture (200 µL) which contained a final concentration of potassium phosphate buffer (50 mM, pH 6.5), ascorbic acid (20 mM), catalase (10 mM), methylene blue (10 µM), and distilled water up to 200 µL. Various concentrations of L-Trp as substrate of IDO1 were added to the reaction mixture with four different concentrations of flavonoids (0–45 µM). After incubation at 37 °C for 1 h, the dissociation constant (κi) of the three flavonoids were determined by measuring the activity at five concentrations of L-Trp (0 to 50 µM).

IDO1 [2] = molecular target: T1, IDO1; test: Thermal shift assay (SYPRO-Orange); format: binding; details: 30 µM compound, without L-Trp; read-out: increase of mean melting temperature (ΔTm) compared to DMSO-treated group
Description: The thermal stability of proteins was measured by SYPRO-Orange (Thermo Fisher Scientific, Waltham, MA) as previously described in Soderhole et al.[24]. Briefly, IDO 1 enzyme (5 µg/mL) was mixed with 30 µM of kushenol F (KF, 4), (2S)-2'-methoxy kurarinone (MK, 5), and kushenol E (KE, 6), or serially diluted KE (6) in 20 µL reaction buffer containing potassium phosphate buffer (50 mM) and sodium chloride (100 mM), and then incubated for 1 h. The measurement of protein denaturation via an increase in temperature was determined using real-time PCR device (CFX96 Real Time System, BioRad, Hercules, CA) using the FRET channel. In the presence of IDO1 enzyme, SYPRO-Orange has a maximum excitation near 490 nm and a maximum emission near 600 nm. The heating rate and fluorescence reading were 0.5 °C/10 s depending on the temperature range 25–95 °C.

IDO1 [3] = molecular target: T1, IDO1; test: Cell-based IDO1 assay (Kyn production) in IFN-γ-treated HeLa cells; design: to induce endogenous IDO1 expression; endogenous in cells; host or cells: HeLa cells stimulated with IFN-γ; details: IFN-γ-treated (50 ng/mL, 24 h) HeLa cells, compound 6 h; mean ± SD; read-out: IC50 against cell-based IDO1 (Kyn production)
Description: HeLa (Human cervical cancer cells) cells were purchased from the American Type Culture Collection (ATCC) and cultured in DMEM supplemented with fetal bovine serum (FBS, 10%) and penicillin–streptomycin (1%).
HeLa cells were seeded into 48-well plates (2 × 10^4 cells/well). Next, the cells were stimulated with human recombinant IFN-γ (50 ng/mL, R&D Systems, Minneapolis, MN) in complete DMEM for 24 h. After replacing the medium with DMEM containing IFN-γ, the cells were treated with the flavonoids (1–6) or DMSO (0.5%, v/v) for 6 h, and then the supernatant (125 µL) from each well was transferred to a 96-well plate. The cell-based assay was similarly performed to the IDO1 enzyme assay.

IDO1 [4] = molecular target: T1, IDO1; test: IDO1 enzyme assay; format: biochemical; design: The full-length of IDO1 gene was amplified by PCR; His tag; made in house; host or cells: Escherichia coli T7 strain, vector pET28a; details: recombinant human IDO1, L-Trp 200 µM, 37 °C, 1 h, mean ± SD; for IC50: read-out: His-hIDO1 IC50
From the text: The Escherihia coli DH5α and T7 strain were used for gene cloning and protein production, respectively. The human IDO1 clone was provided from Korea Human Gene Bank, Medical Genomics Research Center, KRIBB, Korea. The full-length of IDO1 gene was amplified by PCR using pfu DNA polymerase (Thermo Fisher, , Waltham, MA). The PCR product from IDO1 mRNA was cloned into expression vector pET28a to obtain pET28a-IDO1 and confirmed using DNA sequencing (Cosmogenetech, Seoul, Korea). […] The expressed IDO1 protein was purified using Ni-NTA agarose (Qiagen, Valencia, CA) at 4 °C. The eluted IDO1 protein was dialysed using storage buffer (20 mM Tris-HCl buffer (pH 8.0 and 200 mM NaCl)). The purified IDO1 protein was analysed with SDS-PAGE.
The enzyme assays were performed with previous descripted in Takikawa et al.[23]. Briefly, 200 µL of the reaction mixture contained potassium phosphate buffer (50 mM, pH 6.5), ascorbic acid (20 mM), methylene blue (10 µM), catalase (10 mM), purified recombinant human IDO1 enzyme (5 µg/mL) and L-Trp (200 µM). The metabolites were serially diluted in dimethyl sulfoxide (DMSO, 0.5%, v/v) and transferred to a 96-well plates. […] The plates were centrifuged at 4000 rpm for 15 min to remove debris. Next, the supernatant (125 µL) from each well was transferred to a 96-well plates. p-dimethylaminobenzaldehyde (125 µL; 2%, v/v) in acetic acid was then added to each well, and the absorbance value of the plate was read at a wavelength of 480 nm using a SpectraMAX-190 ELISA reader (Molecular Devices, Sunnyvale, CA).

His-IDO1 (WT) = molecular target: T2, His-IDO1 (WT) (Homo sapiens, UniProt P14902); test: Surface plasmon resonance (SPR) assay, His-IDO1 (WT); format: binding
T2 construct: The full-length of IDO1 gene was amplified by PCR; His tag; made in house; host or cells: Escherichia coli T7 strain, vector pET28a
T2 sequence (P14902 whole entry): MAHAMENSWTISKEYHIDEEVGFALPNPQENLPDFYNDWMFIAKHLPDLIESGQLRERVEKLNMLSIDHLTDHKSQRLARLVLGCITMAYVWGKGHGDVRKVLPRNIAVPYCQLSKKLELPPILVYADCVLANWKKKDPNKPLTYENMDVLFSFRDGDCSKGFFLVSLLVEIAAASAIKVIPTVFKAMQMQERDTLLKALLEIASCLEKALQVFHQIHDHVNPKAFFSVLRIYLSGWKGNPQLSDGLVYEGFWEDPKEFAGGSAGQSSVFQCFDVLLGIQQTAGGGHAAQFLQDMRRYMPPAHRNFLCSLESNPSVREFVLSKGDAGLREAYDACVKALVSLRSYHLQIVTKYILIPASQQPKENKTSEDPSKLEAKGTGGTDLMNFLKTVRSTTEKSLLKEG
Description: (§1) The SPR assay was performed with 10 mM stock solution and five serially diluted concentrations of KE (6) in PBS and 5% DMSO at 25 °C using a Reichert instrument (SR7500DC System, USA) using a sensor chip CM5 (GE Healthcare, Chicago, IL) (Woojung BSC Inc, Seoul, Korea). Amine coupling of His-IDO1 (WT and P314A) was performed with 0.2 M 1-ethyl-3-(3-dimethylaminopropyl)-carbodiimide, 0.05 M N-hydroxysuccinimide, and 1 M ethanolamine (ph 8.5, GE Healthcare, Chicago, IL). The results were analysed using Scrubber software (version 2.0, BioLogic Software, Mundelein, IL).

His-IDO1 (P314A) [5] = molecular target: T3, His-IDO1 (P314A) (Homo sapiens, UniProt P14902, P314A); test: Surface plasmon resonance (SPR) assay, His-IDO1 (P314A); format: binding
T3 construct: The full-length of IDO1 gene was amplified by PCR; His tag; made in house
T3 sequence (P14902 whole entry P314A): as the sequence (P14902 whole entry) above, with P314A counted along it
Description: as §1
(§2) Point mutations were introduced using the Muta-Direct^TM mutagenesis kit (iNtRON, Seuol, Korea). Oligonucleotides for generation of Pro182 (P182A), Phe185 (F185A), double mutation (P182A and F185A), and Pro 314 (P314A) to alanine mutants (mutated residues are underlined) were as follows: • For P182A: 5′-[…]-3′, 5′-[…]-3′. • For F185A: 5′-[…]-3′, 5′-[…]-3′. • For double mutation (P182A and F185A): 5′-[…]-3′, 5′-[…]-3′. • For P314A: 5′- […]-3′, 5′- […]-3′.

His-IDO1 (P314A) [6] = molecular target: T3, His-IDO1 (P314A); test: Mutagenesis assay: IDO1 enzyme assay with P314A mutant; format: biochemical; details: mutant form of His-IDO1 (P314A)
Description: The enzyme assays were performed with previous descripted in Takikawa et al.[23]. […]. The metabolites were serially diluted in dimethyl sulfoxide (DMSO, 0.5%, v/v) and transferred to a 96-well plates. The reaction was conducted at 37 °C for 1 h and stopped by adding 40 µL of trichloroacetic acid (30%); the solution was then heated at 65 °C for 15 min. The plates were centrifuged at 4000 rpm for 15 min to remove debris. Next, the supernatant (125 µL) from each well was transferred to a 96-well plates. p-dimethylaminobenzaldehyde (125 µL; 2%, v/v) in acetic acid was then added to each well, and the absorbance value of the plate was read at a wavelength of 480 nm using a SpectraMAX-190 ELISA reader (Molecular Devices, Sunnyvale, CA).
as §2

[7] = standard error in parentheses, read-out: Ka

T1 sequence (P14902 whole entry): as the sequence (P14902 whole entry) above

SMILES	Ki (IDO1 [1])	ΔTm at 30 µM (IDO1 [2])	IC50 (IDO1 [3])	IC50 (IDO1 [4])	other results
C=C(C)[C@H](CC=C(C)C)Cc1c(O)cc(OC)c2c1O[C@H](c1ccc(O)cc1O)CC2=O [(−)-Kurarinone (3), (−)-kurarinone]			74.9 ± 4.9 µM	23.4 ± 1.3 µM	
CC(C)=CCc1c(O)cc(O)c2c1OC(c1ccc(O)cc1)CC2=O (stereo not drawn) [Sophoraflavanone B (2), sophoraflavanone B]			83.6 ± 10.8 µM	19.3 ± 1.1 µM	
O=C1CC(c2ccc(O)cc2O)Oc2cc(O)cc(O)c21 (stereo not drawn) [Steppogenin, steppogenin, reference compound]					His-hIDO1 IC50 (IDO1 [4]): does not affect IDO1 inhibitory activity

More lines, main results first:

Ki (IDO1 [1])	ΔTm at 30 µM (IDO1 [2])	IC50 (IDO1 [3])	IC50 (IDO1 [4])	SMILES	other results
13.7 ± 0.03 µM	0.4 °C	23.8 ± 1.6 µM	31.4 ± 1.3 µM	C=C(C)[C@H](CC=C(C)C)Cc1c(O)cc(OC)c2c1O[C@H](c1ccc(O)cc1OC)CC2=O [(2S)-2′-Methoxy kurarinone (MK, 5), (2S)-2'-methoxy kurarinone]	
9.5 ± 0.6 µM	5.7 °C	4.3 ± 0.3 µM	7.7 ± 6.2 µM	CC(C)=CCc1c(O)c(CC=C(C)C)c2c(c1O)C(=O)C[C@@H](c1ccc(O)cc1O)O2 [Kushenol E (KE, 6), kushenol E]	Kd (His-IDO1 (WT); 25 °C, PBS 5% DMSO): 6.5 ± 0.1 µM; kon (His-IDO1 (WT); [7]): 136 M⁻¹ s⁻¹; Kd (His-IDO1 (P314A) [5]; 25 °C, PBS 5% DMSO): 8.9 ± 0.2 µM; kon (His-IDO1 (P314A) [5]; [7]): 120 M⁻¹ s⁻¹; IC50 (His-IDO1 (P314A) [6]): 29.8 ± 1.8 µM
20.2 ± 3.1 µM	1.5 °C	28.3 ± 0.3 µM	25.4 ± 4.4 µM	C=C(C)[C@H](CC=C(C)C)Cc1c(O)cc(O)c2c1O[C@H](c1ccc(O)cc1O)CC2=O [Kushenol F (KF, 4), kushenol F]	
		42.2 ± 3.5 µM	23.5 ± 2.2 µM	CC(C)=CCc1c(O)cc(O)c2c(=O)c(O)c(-c3ccc(O)cc3)oc12 [Noranhydroicaritin (1), noranhydroicaritin]	

Reference: article PMC6713164, “Inhibitory effects of flavonoids isolated from Sophora flavescens on indoleamine 2,3-dioxygenase 1 activity” (Journal of Enzyme Inhibition and Medicinal Chemistry, 2019)
